Source: PMC5927461, “Activation of host transient receptor potential (TRP) channels by praziquantel stereoisomers” (PLoS Neglected Tropical Diseases, 2018)
“Also recorded” adds a separate entry of the source. Read-outs that look alike come from different tables or passages of the source.

Tests used:
[1] = system: untransfected HEK293 cells; test: Confocal Ca2+ imaging in untransfected HEK293 cells (control); type: cell-based, human; conditions: menthol 300μM, ±PZQ 100μM, ACh 100μM, capsaicin 1μM, AITC 100μM
Procedure: (§1) HEK293 cells (ATCC CRL-1573.3) were cultured in DMEM supplemented with 10% fetal bovine serum (FBS), penicillin (100 units/ml), streptomycin (100 μg/ml), and L-glutamine (290 μg/ml). Cells were transiently transfected (Lipofectamine LTX, Thermo Fisher) at a density of 2x10^6 cells per T-25 cell-culture flask with TRP channel cDNA. For Ca^2+ imaging assays, HEK293 cells were seeded onto 8-chambered coverglass slides (Thermo Fisher, 115411PK), at a density of 1x10^4 cells one day prior to imaging. Cells were washed twice with HBSS, and incubated with fluo-4-AM (4μM), pluronic F127 (0.4%) and probenecid (2.5mM) for 25 minutes at room temperature. Cells were then washed twice with HBSS, and left at room temperature (30 minutes) for de-esterification. Dishes were mounted on an Olympus IX81 microscope and fluorescence changes (λex = 488nM, λem = 513±15nm bandpass filter) monitored using a Yogokawa spinning disk confocal (CSU-X-M1N) and an Andor iXon Ultra 888 EMCCD camera.

[2] = target: T1, hTRPM8 (Homo sapiens, UniProt Q7Z2W7); parameters: host or cells: HEK293 (ATCC CRL-1573.3), transient; method as in PMID 29054683; conditions: by microfluorimetry; partial agonist; cited from earlier work
T1 sequence (Q7Z2W7 whole entry): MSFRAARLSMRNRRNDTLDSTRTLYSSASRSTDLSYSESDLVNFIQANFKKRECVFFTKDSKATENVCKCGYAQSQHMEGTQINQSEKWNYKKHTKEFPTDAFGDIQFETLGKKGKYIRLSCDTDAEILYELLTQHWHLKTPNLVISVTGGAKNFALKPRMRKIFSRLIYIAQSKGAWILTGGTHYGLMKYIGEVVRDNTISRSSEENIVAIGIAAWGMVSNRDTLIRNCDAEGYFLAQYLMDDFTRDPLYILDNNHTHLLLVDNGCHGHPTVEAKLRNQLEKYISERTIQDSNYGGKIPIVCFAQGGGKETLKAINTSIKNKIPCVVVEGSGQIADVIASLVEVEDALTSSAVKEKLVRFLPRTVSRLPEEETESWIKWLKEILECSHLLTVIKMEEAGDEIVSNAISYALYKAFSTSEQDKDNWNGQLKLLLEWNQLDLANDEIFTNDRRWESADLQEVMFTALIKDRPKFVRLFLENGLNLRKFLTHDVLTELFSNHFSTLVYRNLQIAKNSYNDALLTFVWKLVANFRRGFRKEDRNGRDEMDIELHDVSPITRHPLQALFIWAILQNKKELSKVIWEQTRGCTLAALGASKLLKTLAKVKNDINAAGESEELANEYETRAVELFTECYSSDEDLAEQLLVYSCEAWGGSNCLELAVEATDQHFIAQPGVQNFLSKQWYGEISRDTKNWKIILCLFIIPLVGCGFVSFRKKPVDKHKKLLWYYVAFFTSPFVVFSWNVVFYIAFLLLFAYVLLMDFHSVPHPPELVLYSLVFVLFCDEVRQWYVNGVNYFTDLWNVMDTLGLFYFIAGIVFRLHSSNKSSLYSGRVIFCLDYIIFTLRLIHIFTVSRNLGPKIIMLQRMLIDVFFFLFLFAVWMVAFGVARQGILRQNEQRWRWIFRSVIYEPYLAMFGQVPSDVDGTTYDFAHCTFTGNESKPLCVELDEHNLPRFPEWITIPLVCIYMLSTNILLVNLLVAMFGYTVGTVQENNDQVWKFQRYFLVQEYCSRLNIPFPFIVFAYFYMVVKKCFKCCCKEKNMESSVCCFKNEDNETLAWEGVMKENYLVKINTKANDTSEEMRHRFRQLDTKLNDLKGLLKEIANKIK

[3] = target: T1, hTRPM8; test: Single cell confocal Ca2+ imaging (fluo-4) in transfected HEK293 cells; type: cell-based; parameters: host or cells: HEK293 (ATCC CRL-1573.3), transient; conditions: for EC50: confocal imaging, Fig 4E, read-out: EC50, Ca2+ mobilization in TRPM8 expressing cells; for cytoplasmic Ca2+ signal in TRPM8 expressing cells: menthol 300μM, ±PZQ 100μM, (R)-PZQ or (S)-PZQ 50μM
From the text: (§2) Human TRPM8 cDNA was a VersaClone from R&D Systems (RDC0188). Plasmids encoding human TRPA1 and human TRPV1 cDNA were purchased from DNASU plasmid repository (HsCD00080227 and HsCD00081472, respectively). The TRP channel coding sequences were subcloned into pCS2+ to introduce a COOH-term myc tag using the InFusion HD method (Clontech), HindIII/XhoI restriction enzymes (NEB) and the following primers: TRPM8 F–TGGGGACGTCGGAGC-aagctt-[…]; TRPM8 R–AAATCGATGGGATGC-ctcgag-[…]; TRPA1 F-GGACGTCGGAGC-aagctt- atgaagcgcagcctgagg; TRPA1 R-TCGATGGGATGC-ctcgag-[…]; TRPV1 F–GGACGTCGGAGC-aagctt-[…]; TRPV1 R-TCGATGGGATGC-ctcgag-cttctccccggaagcgg (where upper case specifies vector-specific sequences, italics indicate restriction sites, and lower case indicates TRP channel specific sequences). Primers are listed in a 5’ to 3’ orientation.
as §1

[4] = target: hTRPA1 (Homo sapiens, UniProt O75762); test: as above; type: cell-based; parameters: host or cells: HEK293 (ATCC CRL-1573.3), transient; conditions: 100μM
Sequence of hTRPA1 (O75762 whole entry): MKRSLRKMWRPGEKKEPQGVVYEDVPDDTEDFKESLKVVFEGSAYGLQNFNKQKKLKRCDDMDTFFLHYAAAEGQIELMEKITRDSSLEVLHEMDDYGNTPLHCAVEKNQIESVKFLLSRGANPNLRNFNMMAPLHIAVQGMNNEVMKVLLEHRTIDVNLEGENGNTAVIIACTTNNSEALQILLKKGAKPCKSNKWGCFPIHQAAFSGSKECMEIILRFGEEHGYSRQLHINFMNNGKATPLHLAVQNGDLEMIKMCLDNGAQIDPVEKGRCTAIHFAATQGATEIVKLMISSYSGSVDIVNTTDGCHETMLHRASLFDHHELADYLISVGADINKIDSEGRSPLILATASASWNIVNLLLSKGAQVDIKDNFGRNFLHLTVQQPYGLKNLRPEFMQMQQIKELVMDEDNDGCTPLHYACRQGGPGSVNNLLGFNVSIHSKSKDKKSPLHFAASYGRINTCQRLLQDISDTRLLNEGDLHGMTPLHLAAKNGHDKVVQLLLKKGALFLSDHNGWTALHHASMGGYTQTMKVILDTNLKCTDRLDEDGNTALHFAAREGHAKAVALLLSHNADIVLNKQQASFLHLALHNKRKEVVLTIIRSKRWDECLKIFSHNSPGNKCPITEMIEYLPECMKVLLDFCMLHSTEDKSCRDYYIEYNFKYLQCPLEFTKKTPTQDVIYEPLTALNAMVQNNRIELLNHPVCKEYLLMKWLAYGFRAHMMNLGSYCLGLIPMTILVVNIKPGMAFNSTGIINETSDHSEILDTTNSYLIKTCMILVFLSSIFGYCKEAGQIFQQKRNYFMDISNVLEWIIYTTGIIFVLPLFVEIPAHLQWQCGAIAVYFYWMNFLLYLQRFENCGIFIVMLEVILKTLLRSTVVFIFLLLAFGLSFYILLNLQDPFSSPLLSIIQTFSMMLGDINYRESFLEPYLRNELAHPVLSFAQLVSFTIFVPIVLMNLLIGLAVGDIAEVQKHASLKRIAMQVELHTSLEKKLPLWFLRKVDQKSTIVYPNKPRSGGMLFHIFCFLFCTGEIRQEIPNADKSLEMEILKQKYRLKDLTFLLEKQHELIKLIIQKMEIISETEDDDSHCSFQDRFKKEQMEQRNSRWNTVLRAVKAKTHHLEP
From the text: as §2, §1

[5] = target: T2, TRPV1 (Homo sapiens, UniProt Q8NER1); test: as above; type: cell-based; parameters: host or cells: HEK293 (ATCC CRL-1573.3), transient; conditions: capsaicin 1μM, ±PZQ 100μM
T2 sequence (Q8NER1 whole entry): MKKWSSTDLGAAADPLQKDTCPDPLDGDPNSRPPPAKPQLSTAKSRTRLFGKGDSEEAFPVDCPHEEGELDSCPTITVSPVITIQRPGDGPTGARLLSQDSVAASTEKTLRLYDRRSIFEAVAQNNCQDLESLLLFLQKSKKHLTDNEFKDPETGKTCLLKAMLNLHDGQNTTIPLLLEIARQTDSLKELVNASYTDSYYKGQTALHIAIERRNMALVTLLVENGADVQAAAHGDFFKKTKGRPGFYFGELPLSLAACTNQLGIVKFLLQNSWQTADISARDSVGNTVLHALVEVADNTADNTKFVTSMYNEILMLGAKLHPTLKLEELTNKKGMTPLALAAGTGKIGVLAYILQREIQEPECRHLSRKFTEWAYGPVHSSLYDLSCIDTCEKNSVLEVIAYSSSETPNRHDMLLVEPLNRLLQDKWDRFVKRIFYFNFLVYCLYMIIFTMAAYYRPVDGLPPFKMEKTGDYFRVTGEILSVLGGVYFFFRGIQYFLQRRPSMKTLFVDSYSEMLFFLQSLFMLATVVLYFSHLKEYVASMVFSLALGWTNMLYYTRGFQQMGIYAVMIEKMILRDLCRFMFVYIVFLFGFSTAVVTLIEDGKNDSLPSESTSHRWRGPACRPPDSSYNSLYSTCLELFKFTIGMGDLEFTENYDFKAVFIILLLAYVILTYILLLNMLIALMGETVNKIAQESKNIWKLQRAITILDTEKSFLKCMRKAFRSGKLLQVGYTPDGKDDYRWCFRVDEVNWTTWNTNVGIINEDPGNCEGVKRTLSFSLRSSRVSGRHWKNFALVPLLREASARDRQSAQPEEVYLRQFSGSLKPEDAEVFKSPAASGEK
From the text: as §2, §1

[6] = system: mouse mesenteric arteries; test: Wire myography, mesenteric artery strips at resting (basal) tone; conditions: 100μM added at basal tone
[7] = target: T2, TRPV1; parameters: method as in PMID 29054683; conditions: 100μM; cited from earlier work
[8] = target: T2, TRPV1; test: TRP channel panel primary screen (FLIPR Calcium 5, stable HEK line); type: cell-based; conditions: 0.3-300μM
Procedure: ±PZQ, (R)-PZQ and (S)-PZQ were screened against a panel of 17 human TRP channels (SB Drug Discovery, Glasgow). For all hTRPs, except for TRPM5, individual channel constructs were stably expressed in HEK cell lines. TRMP5 was expressed in a stable CHO cell line. In preparation for the assays, cells were trypsinized, counted and seeded (50,000 cells/well) in black, clear-bottomed 96 well plates and incubated overnight. The following day, cells were loaded with a fluorescent indicator (FLIPR Calcium 5 Assay kit for TRPA1, TRPV1, TRPV2, TRPV3, TRPV4, TRPV5, TRPC1, TRPM2, TRPM3 and TRPM8, or a membrane potential dye (FLIPR Membrane Potential Red Assay Kit for TRPC3, TRPC4, TRPC5, TRPC6, TRPC7, TRPM4 and TRPM5) prepared according to the manufacturer’s instructions in HEPES buffered Hank’s balanced salt solution (HBSS). Dye solution (10μl) was added to appropriate wells and incubated at 37°C for 1 hour. All assays were performed at room temperature. Compounds were tested at 0.3, 1, 3, 10, 30, 100μM and 300μM in triplicate in both agonist and antagonist mode to determine EC50 and IC50 values, which were compared with reference compounds. Compounds were screened at a final DMSO concentration of 0.5%. Plates were screened using a Flexstation (Molecular Devices, FX01138), monitoring fluorescence values every ~1.52 seconds. For ‘agonist mode’ testing, 10μl of the appropriate test compound, or standard agonist, was added after 20 seconds and fluorescence monitored for 2 minutes at λex = 485nm, λem = 525nm for Ca^2+ imaging and λex = 530nm, λem = 565nm for membrane potential measurements. For ‘antagonist mode’ testing, test compounds and standard inhibitors were added to appropriate wells and incubated for 10 minutes at room temperature prior to addition of standard agonist compound.

[9] = system: TRPA1; parameters: method as in PMID 29054683; conditions: ≤100μM; cited from earlier work
[10] = system: mesenteric vessels isolated from a TRPM8 knockout mouse; test: Wire myography, KPSS-contracted mesenteric vessels from TRPM8 knockout mice; conditions: TRPM8 KO tissue; 50μM

Structure (SMILES)	Ca2+ response in untransfected HEK293 cells [1]	EC50 [2] [µM]	EC50 [3] [µM]	cytoplasmic Ca2+ signal in TRPM8 expressing cells [3]	Ca2+ response in hTRPA1 expressing cells [4]	Ca2+ signal in TRPV1 expressing cells [5]	change of tension at resting tone [6]	activation of TRPV1 [7]	activity against TRPV1 in primary screen [8]	activity against TRPA1 [9]	extent of relaxation [10]
O=C(C1CCCCC1)N1CC(=O)N2CCc3ccccc3C2C1 (racemic) [±PZQ, praziquantel]	neither ±PZQ or menthol elevated cytoplasmic Ca^2+ levels; also recorded: neither the addition of the TRPV1 agonist capsaicin (1μM) nor addition of ±PZQ evoked a Ca^2+ response; also recorded: without effect	~25	19 ± 5	evoked cytoplasmic Ca^2+ signals	elicited Ca^2+ responses	No responses	marked contraction	low potency activation	no activity	lack of activity	
O=C(C1CCCCC1)N1CC(=O)N2CCc3ccccc3[C@H]2C1 [(S)-PZQ]			19.2 ± 5.3	evoked cytoplasmic Ca^2+ signals	activation of hTRPA1						~ 30 % of peak KPSS-evoked tone
